Results reported in patent US10577349B2 (Sanford Burnham Prebys Medical Discovery Institute, priority 2015, dated 2020).
Values after ≈ are worked out from the molar mass of the structure shown. Values joined by “and” are separate entries in the source; they are usually repeats but may differ in a detail not shown here. Identical values can stand only once. Like-named read-outs stand apart in the source and are kept apart here.

What was measured:
[1] = Blood chemistry following Compound 38 IP administration; type: in vivo; conditions: Compound 38 1 mg/kg IP, individual mice #4-#6
Excerpt: The growth of A375 tumors in immunodeficient mice subjected to either BRAFi alone or BRAFi combined with Compound 38 was monitored in vivo. Compound 38 toxicity in mice was monitored by liver function (Table 5).

[2] = test system: UACC903 and WM1346 cell lines; test: Reverse phase protein array analysis (RPPA), average of both cell lines; type: cell-based, human
Description: UACC903 and WM1346 cells were treated with DMSO (controls) or 1 μM Compound 38 for 24 h in triplicate. Cells were lysed with lysis buffer (1% Triton X-100, 50 mM HEPES, pH 7.4, 150 mM NaCl, 1.5 mM MgCl2, 1 mM EGTA, 100 mM NaF, 10 mM Na pyrophosphate, 1 mM Na3VO4, 10% glycerol, with freshly added protease and phosphatase inhibitors) and centrifuged at 13,000 g for 20 minutes. Denatured protein lysates containing the same amount of protein were then subjected to RPPA analysis at the RPPA Core Facility, Md. Anderson Cancer Center, as previously described (Tibes. R., et al. Reverse phase protein array: validation of a novel proteomic technology and utility for analysis of primary leukemia specimens and hematopoietic stem cells. Molecular cancer therapeutics 5, 2512-2521 (2006)),
(§1) A reverse phase protein array (RPPA) analysis of BRAF- and NRAS-mutant melanomas was performed to identify protein networks affected by Compound 38 (Table 4).

A375 tumors = test: A375 xenograft in nude mice; type: in vivo
Description: All animal studies were conducted in the SBMRI Animal Facility in accordance with the Institutional Animal Care and Use Committee guidelines. Six-week-old female nu/nu mice were purchased Harlan Laboratories (Indianapolis, Ind.) and allowed to acclimatize for 1 week. A375 cells (1×10^6, suspended in 200 μL sterile PBS) were injected into subcutaneous flank tissue. When the xenograft size reached ˜250 mm^3, mice were sorted into different groups. For PLX4720 and Compound 38 combination experiments, mice were either fed PLX4720-containing chow alone (AIN76A Roden Diet with 417 mg PLX4720/kg from Open Source Diets) for the control group or PLX4 720-containing chow plus an IP injection of 1 mg/kg Compound 38 twice a week. For MEKi plus Compound 38 experiments, PD0325901 at 20 mg/kg (formulated in 0.5% hydroxypropyl methylcellulose plus 0.2% Tween-80) was administered by oral gavage twice a week (Monday and Thursday) for the control group, or PD035901 plus IP injection of 1 mg/kg Compound 38 was administered twice a week (Tuesday and Friday). Mice were maintained in a pathogen-free environment with free access to food. Body weight and tumor volume were measured twice a week. Tumor size was measured with linear calipers and calculated using the formula: ([length in millimeters×(width in millimeters)2]/2). Mice were sacrificed after 4 weeks and tumors were fixed in Z-Fix (Anatech, Battle Creek, Mich.) and embedded in paraffin for immunohistochemistry.
A375 human melanomacells were injected subcutaneously (1×10^6) into the flank of nude mice and allowed to form established tumors. Once tumors reached approximately 250 mm3, mice were randomly grouped and subjected to the indicated treatments [chow containing PLX4720 (417 mg/kg) and/or Compound 38 (1 mg/kg, 2 times per week intraperitoneally)]. Tumor size was measured at the indicated time points. The experiment was repeated twice. […] When tumors were allowed to reach 500 mm^3 before initiating treatment, 5 of 7 […] mice subjected to BRAFi treatment alone relapsed as drug-resistant tumors (4/5 within 4-6 weeks), whereas only 3 of 6 (50%) subjected to combination treatment developed resistance, albeit more slowly (2/3 after 8 weeks; FIG. 22). […] Proteins prepared at the indicated times from A375 tumors that were subjected in vivo to treatment with Compound 38 were incubated with m^7GTP-beads to capture the eIF4F complex. Shown is time-dependent inhibition of eIF4G1 binding to eIF4E in vivo, concomitant with increased binding of inhibitory 4E-BP1 to eIF4E.

[3] = test system: UACC903 and A375 cell lines; test: Western blot validation of RPPA data; type: cell-based, human
Description: Cells were rinsed with PBS and lysed in culture plates with lysis buffer (50 mM Tris-HCl, pH 7.4, 150 mM NaCl, 1% NP-40, 1 mM EDTA, 10 μg/ml aprotinin, 1 μg/ml pepstatin A, 10 μg/ml leupeptin, 1 mM phenylmethylsulfonyl fluoride, and 1 mM sodium orthovanadate). Protein concentration was determined using Coomassie Plus Protein Assay Reagent (Thermo Scientific). Equal amounts of cell lysate proteins (50 μg) were resolved by SDS-PAGE and transferred to polyvinylidene difluoride membranes (PerkinElmer Life Sciences). Membranes were blocked with 5% BSA/TBST for 1 h and incubated with primary antibodies for 1 h at room temperate or overnight at 4° C., with shaking. Following three TBST washes, membranes were incubated for 1 h at room temperature with goat anti-rabbit Alexa Fluor 680 F(ab′)2 or goat anti-mouse IRDye 800 F(ab′)2 diluted 1:10,000. Bound antibodies were detected using the Odyssey Infrared Imaging System (LiCor Biosciences), or by exposing them to X-ray blue film.
as §1

[4] = Aqueous Solubility in pION's buffer; type: physicochemical

O=C(/C=C/c1cncc(F)c1)c1c(-c2ccccc2)c2cc(Cl)ccc2[nH]c1=O [Compound 38, 6-Chloro-3-[3-(5-fluoro-pyridin-3-yl)-acryloyl]-4-phenyl-1H-quinolin-2-one]
CRE (Kidney) [1]: <18 µmol/L
ALB (Liver) ([1]; 1 mg/kg): 32 g/L (2×) and 34 g/L
ALP (Liver) ([1]; 1 mg/kg): 88 μ/L and 54 μ/L and 24 μ/L
ALT (Liver) ([1]; 1 mg/kg): 126 μ/L and >1000 μ/L and 152 μ/L
AMY (Pancreas) ([1]; 1 mg/kg): 701 μ/L and 811 μ/L and 1625 μ/L
BUN (Kidney) ([1]; 1 mg/kg): 7.5 mmol/L and 9.9 mmol/L and 7.9 mmol/L
CA (Electrolytes) ([1]; 1 mg/kg): 2.25 mmol/L and 2.1 mmol/L and 2.14 mmol/L
GLOB (Liver) ([1]; 1 mg/kg): 10 g/L and 11 g/L (2×)
GLU (General metabolism) ([1]; 1 mg/kg): 17.6 mmol/L and 13.8 mmol/L and 16.5 mmol/L
K^+ (Electrolytes) ([1]; 1 mg/kg): 5.5 mmol/L and 8 mmol/L and 6.5 mmol/L
Na^+ (Electrolytes) ([1]; 1 mg/kg): 137 mmol/L (2×) and 146 mmol/L
PHOS (Electrolytes) ([1]; 1 mg/kg): 2.4 mmol/L and 2.27 mmol/L and 1.64 mmol/L
TBIL (Liver) ([1]; 1 mg/kg): 5 μmol/L and 4 μmol/L (2×)
TP (Liver) ([1]; 1 mg/kg): 42 g/L and 44 g/L and 43 g/L
Ratio [Compound 38/DMSO] A-Raf, Average [2]: 0.9
Ratio [Compound 38/DMSO] AR, Average [2]: 0.82
Ratio [Compound 38/DMSO] ATM, Average [2]: 0.81
Ratio [Compound 38/DMSO] ATR, Average [2]: 0.80
Ratio [Compound 38/DMSO] BRCA2, Average [2]: 0.93
Ratio [Compound 38/DMSO] C-Raf, Average [2]: 0.92
Ratio [Compound 38/DMSO] Chk1, Average [2]: 0.91
Ratio [Compound 38/DMSO] Ets-1, Average [2]: 0.92
Ratio [Compound 38/DMSO] GCN5L2, Average [2]: 0.87
Ratio [Compound 38/DMSO] INPP4b, Average [2]: 0.9
Ratio [Compound 38/DMSO] MSH6, Average [2]: 0.77
Ratio [Compound 38/DMSO] PI3K-p85, Average [2]: 0.95
Ratio [Compound 38/DMSO] PI3K-p110-alpha, Average [2]: 0.95
Ratio [Compound 38/DMSO] Rad51, Average [2]: 0.85
Ratio [Compound 38/DMSO] Raptor, Average [2]: 0.86
Ratio [Compound 38/DMSO] Rictor_pT1135, Average [2]: 0.87
Ratio [Compound 38/DMSO] S6_pS235_S236, Average [2]: 0.67
Ratio [Compound 38/DMSO] S6_pS240_S244, Average [2]: 0.63
Ratio [Compound 38/DMSO] Stat5a, Average [2]: 0.76
Ratio [Compound 38/DMSO] Tuberin, Average [2]: 0.65
Ratio [Compound 38/DMSO] YB1, Average [2]: 0.73
Ratio [Compound 38/DMSO] c-Kit, Average [2]: 0.90
Ratio [Compound 38/DMSO] c-Myc, Average [2]: 0.76
Ratio [Compound 38/DMSO] mTOR, Average [2]: 0.80
Ratio [Compound 38/DMSO] mTOR_pS2448, Average [2]: 0.74
Ratio [Compound 38/DMSO] p70-S6K_pT389, Average [2]: 0.81
effect on the eIF4F complex in vivo (m7GTP-beads) (A375 tumors; A375 tumors, treatment with both BRAFi and Compound 38, up to 8 hours): time-dependent disruption of the eIF4F complex
Growth of established tumors (~250 mm^3), combination of BRAFi plus Compound 38 (A375 tumors; PLX4720 chow plus Compound 38 1 mg/kg, 2 times per week intraperitoneally): largely inhibited
Tumors seen in mice treated with the drug combination (A375 tumors; treatment started at ~250 mm^3, PLX4720 chow plus Compound 38 1 mg/kg IP): 0/4
Western blot: phosphorylation of S6, mTOR, P70S6K, TSC2 and 4E-BP1 [3]: dose dependent inhibitory effects
solubility ([4]; aqueous buffer, pH 5.0, read-out: Aqueous Solubility in pION's buffer pH 5.0): 6.5 µg/mL (≈ 16.1 µM)
solubility ([4]; pH 6.2, aqueous buffer, read-out: Aqueous Solubility in pION's buffer pH 6.2): 6.6 µg/mL (≈ 16.3 µM)
solubility ([4]; pH 7.4, aqueous buffer, read-out: Aqueous Solubility in pION's buffer pH 7.4): 5.5 µg/mL (≈ 13.6 µM)
